Measurements as given in article PMC9884808, “Pharmacokinetics, tissue distribution, and antitumor activity of a novel compound, NY-2, in non-small cell lung cancer” (Frontiers in Pharmacology, 2023).

Tests used:
[1] = system: HCT116; assay: MTT cell viability assay; type: cell-based, human; conditions: Homo sapiens, HCT-116, HCT116 colorectal cancer cells
Method: The human colorectal cancer cell lines, HCT116 and LoVo, the breast cancer cell line, T47D, the hepatocellular carcinoma cell line, HepG2, the normal human liver cell line, HL7702, human umbilical vein endothelial cells (HUVECs), and the non-small cell lung cancer cell lines, A549, H1993, HCC827, H460, were purchased from the American Type Culture Collection (Manassas, VA, United States). Cell lines were cultured in the recommended RPMI-1640 medium (AE24464298, Hyclone, United States) and DMEM medium (AE29422278, Hyclone, United States) supplemented with 10% fetal bovine serum (FBS; JC63470, FB15015, Clark, United States) with 1% penicillin-streptomycin. Cells were maintained in an incubator at 37°C with 5% CO2 (HF90,Sanyo, Japan) and passaged every 48–72 h, after detaching with 0.25% trypsin (Sigma, United States). The compounds ZLDI-8 and NY-1 to -15 were synthesized in the laboratory of Dr. Huaiwei Ding in Shenyang Pharmaceutical University, and verified by high-performance liquid chromatography (purity >95%) for use in experiments (Supplementary Figure S1). Paclitaxel was purchased from MedChemExpress (HY-B0015, 99.97% purity, United States).
Cell viability was measured by the MTT assay. HCT116, HL7702, A549, H1993, HCC827, and H460 cells were dispensed into 96-well plates at a density of 1 × 10^5 cells/mL. After 24–48 h incubation, cells were treated with the compounds at different concentrations for the indicated periods. An assay kit (WLA073, Wanlei Co., Liaoning, China), was used according to the manufacturer’s instructions to measure LDH activity, The absorbance at 450 nm was measured with a microplate reader (Elx-800, Bio-Rad, China).
The preliminary antitumor activity of the series of ZLDI-8 derivatives, NY-1 to -15 was screened by the MTT cell viability assay. […] The antitumor activity of NY-2 on HCT116 cells was concentration- and time-dependent, and slightly better than that of the original compound, ZLDI-8.

[2] = Tissue distribution in rats; type: in vivo, SD rats; conditions: for blood-brain barrier penetration: rat brain tissue concentration very low; for order of concentrations in tissues: 5 min after administration
Method: After fasting for 12 h, 32 SD rats were randomly divided into eight groups of four rats each. Four groups were injected with ZLDI-8 via tail vein (6 mg/kg) at 5 min, 12, 24, and 48 h. The other four groups were injected with NY-2 (6 mg/kg) at the same time points. The heart, liver, spleen, lung, kidney, brain, muscle, and intestines were collected after cervical dislocation at the specified time points and tissue samples were removed. Samples were rinsed with normal saline at 0°C to remove residual blood and debris, blotted dry with filter paper, weighed, and stored at ˗20°C until used.

[3] = Stability of plasma samples (LC-MS/MS method validation); type: in vitro ADME, rat; conditions: room temperature 12 h, auto-sampler 4°C 3 days, -20°C 14 days, three freeze-thaw cycles
Description: We used the online ADME prediction tool Swiss AMDE (http://www.swissadme.ch/index.php) (SwissADME, 2017) to analyze the physicochemical descriptors and ADME parameters of NY-2 and ZLDI-8, to predict their pharmacokinetic properties, drug-like nature, and medicinal chemistry. […] Male Sprague-Dawley rats weighing 240 ± 20 g were purchased from Liaoning Changsheng Biotechnology Co., Ltd. (Liaoning, China, animal license #SCXK-2015-0001). Rats were used for the tissue distribution and pharmacokinetics experiments because of their larger body fluid volume. The rats were fasted for 12 h before the experiment but allowed to drink water freely. […] Plasma samples were subjected to a protein precipitation method for the quantitative analysis of ZLDI-8 and NY-2 by LC-MS/MS (API 3200MD, AB Sciex, United States). […] The linear equation and correlation coefficient (r) of the regression curve were calculated from these concentrations and the corresponding […] data. The specificity, lower limit of quantification (LLOQ), linear range, precision, accuracy, matrix effects, extraction recovery, stability of analytes during the whole process of storage, as well as treatment in a biological matrix and solution were determined to verify the reliability of the compound concentrations in vivo. […]

| Compound | IC50 [1] [µM] | blood-brain barrier penetration [2] | concentration in the brain ([2]; rat, tail vein 6 mg/kg) | tissue with the highest concentration ([2]; rat, tail vein 6 mg/kg) | order of concentrations in tissues ([2]; rat, tail vein 6 mg/kg) | stability of plasma samples [3] |
| --- | --- | --- | --- | --- | --- | --- |
| Cc1c(C=C2C(=O)NC(=S)NC2=O)c2ccccc2n1CCOc1ccc(F)cc1 [NY-2] | 5.35 | do not readily penetrate the blood-brain barrier | almost zero | highest in the lung | lung > liver > spleen > heart > kidney > intestines > brain > muscle | stable under a variety of analytical conditions |
| Cc1ccc(OCCn2c(C)c(C=C3C(=O)NC(=S)NC3=O)c3ccccc32)c(C)c1 [ZLDI-8, reference compound] | 7.72 | do not readily penetrate the blood-brain barrier | almost zero |  | lung > liver > spleen > heart > kidney > intestines > brain > muscle | stable under a variety of analytical conditions |
